Laboratory results published in US20250213547A1, “METHODS OF TREATING NEUROLOGICAL DISEASES” (priority 2022, published 2025).
Values joined by “and” are separate entries in the source; they are usually repeats but may differ in a detail not shown here. Equal entries are not always repeated. Where two headings read alike, the source gives them in different places.

Test: Healthy Japanese subjects, Part 2 (100, 200, 300 mg BID up-titration): PK of TAK-935 and M-I
Type: in vivo, human
Settings: for AUlast/D (dose-normalized): mean (% CV); for AUC / Cmax / Tmax / Vd/F / AUC(0-t) / half-life: human, oral; for Vd/F: read-out: Vz/F; for half-life: read-out: t1/2z (terminal disposition phase half-life) (converted)
Method: This study consisted of 2 parts, and was a randomized, double-blind, placebo-controlled study to assess safety, tolerability, and PK and PD of TAK-935 when administered orally in healthy Japanese subjects.
TAK-935 or placebo was administered to the 9 subjects at the dose of 100 mg BID from Day 1 to Day 7, then 200 mg BID from Day 8 to Day 14, and finally 300 mg BID from Day 15 to Day 21, and safety, PK and PD were investigated. The planned dose levels of TAK-935 to be evaluated are outlined in Table 40a.
After the screening visit, eligible participants checked—in on Day-2. On Day 1, eligible participants were randomized 6:3 to TAK-935 or placebo in double-blinded fashion. No stratification variables were used for randomization. Study drug was administered every day by oral administration of multiple dosing with up-titration of TAK-935 to 9 subjects firstly at 100 mg BID from Day 1 to Day 7, then at 200 mg BID from Day 8 to Day 14, and finally at 300 mg BID from Day 15 to Day 21, successively. The subjects were discharged on Day 24. Intensive PK samplings were performed on Day 1, Day 7, Day 14 and Day 21.
Subjects received multiple oral doses of TAK-935 or placebo escalating from 100 mg BID, 200 mg BID, and then to 300 mg BID with 150 mL of water for 7 days per each dose level. For the morning dose, subjects were kept fasted for at least 8 hours before administration and up to 2 hours after administration. The evening dose was administered at any time between 8 hours and 12 hours after the morning dose, but prior to the evening meal except for Days 1, 7, 14, and 21. On Days 1, 7, 14, and 21, the evening dose was administered 12 hours after the morning dose and prior to the evening meal. • Identity of Study Drugs • Study drug refers to TAK-935 100 mg tablet and matching placebo. • Compound: Code name: TAK-935 • Dosage forms: TAK-935 100 mg tablets and matching placebo tablets were used in this study. The TAK-935 tablets and placebo tablets were yellow-red film-coated tablets for oral administration.
Blood samples for PK analysis of TAK-935 and its metabolites (M-I) were collected into blood collection tubes (vacutainer) containing the anticoagulant K2EDTA (Table 40e and Table 40f).
The PK parameters of TAK-935 and its metabolites (M-I) were determined from the concentration-time profiles for all evaluable subjects. Actual sampling times, rather than scheduled sampling times, were used in all computations involving sampling times. The following PK parameters were calculated from plasma concentrations of TAK-935 and its metabolites (M-I), unless otherwise specified: […]

[1] = Day 1 (100 mg BID), Part 2, Median
[2] = Day 1, TAK-935 100 mg BID, plasma, mean
[3] = Day 7 (100 mg BID), Part 2, Median
[4] = Day 7, TAK-935 100 mg BID, plasma, mean
[5] = Day 14 (200 mg BID), Part 2, Median
[6] = Day 14, TAK-935 200 mg BID, plasma, mean
[7] = Day 21 (300 mg BID), Part 2, Median
[8] = Day 21, TAK-935 300 mg BID, plasma, mean
[9] = plasma, 100 mg, Day 1, TAK-935 100 mg BID, plasma, mean
[10] = plasma, 100 mg, Day 7, TAK-935 100 mg BID, plasma, mean
[11] = plasma, 200 mg, Day 14, TAK-935 200 mg BID, plasma, mean
[12] = plasma, 300 mg, Day 21, TAK-935 300 mg BID, plasma, mean

Structure (SMILES): O=C(c1cccnc1-c1ccncc1)N1CCC(O)(Cc2ccccc2)CC1 [soticlestat]
- CL/F [1]: 501.5 L/H
- Lambda z [1]: 0.2135 h⁻¹
- T1/2z [1]: 196.5 min
- CL/F [2]: 451.8 L/h
- Lambda z [2]: 0.2042 h⁻¹
- CL/F [3]: 443.0 L/H
- Lambda z [3]: 0.2180 h⁻¹
- T1/2z [3]: 196.2 min
- CL/F [4]: 551.8 L/h
- Lambda z [4]: 0.2325 h⁻¹
- AUlast/D (dose-normalized) (Day 7, TAK-935 100 mg BID, plasma): 2.238 (49.3) h*ng/mL/mg
- CL/F [5]: 254.0 L/H
- Lambda z [5]: 0.2685 h⁻¹
- T1/2z [5]: 154.5 min
- CL/F [6]: 276.7 L/h and 276.4 L/h
- Lambda z [6]: 0.2775 h⁻¹
- AUlast/D (dose-normalized) (Day 14, TAK-935 200 mg BID, plasma): 4.298 (44.9) h*ng/mL/mg
- CL/F [7]: 147.0 L/H
- Lambda z [7]: 0.3095 h⁻¹
- T1/2z [7]: 134.4 min
- CL/F [8]: 158.0 L/h
- Lambda z [8]: 0.2708 h⁻¹
- AUlast/D (dose-normalized) (Day 21, TAK-935 300 mg BID, plasma): 6.725 (25.2) h*ng/mL/mg
- Mean t1/2z (TAK-935, Day 1, 100 mg BID): 359.3 min
- Mean t1/2z (TAK-935, Day 7, 100 mg BID): 217.8 min
- Mean t1/2z (TAK-935, Day 14, 200 mg BID): 157.2 min
- Mean t1/2z (TAK-935, Day 21, 300 mg BID): 175.6 min
- accumulation of Cmax and AUC (TAK-935, multiple dose administration): < 6%
- AUC (plasma, 100 mg, Day 1 (100 mg BID), Part 2, Geo Mean, read-out: AUC1ast): 209 ng·h/mL
- AUC (plasma, 100 mg, Day 1 (100 mg BID), Part 2, Geo Mean, read-out: AUCtau): 209 ng·h/mL
- Cmax (plasma, 100 mg, Day 1 (100 mg BID), Part 2, Geo Mean, read-out: Cmax): 201 ng/mL
- Tmax (plasma, 100 mg, Day 1 (100 mg BID), Part 2, Mean, read-out: Tmax): 52.5 min
- AUC (plasma, 100 mg, Day 1 (100 mg BID), Part 2, Median, read-out: AUC1ast): 160 ng·h/mL
- AUC (plasma, 100 mg, Day 1 (100 mg BID), Part 2, Median, read-out: AUCtau): 160 ng·h/mL
- Cmax (plasma, 100 mg, Day 1 (100 mg BID), Part 2, Median, read-out: Cmax): 146 ng/mL
- Vd/F (plasma, 100 mg, Day 1 (100 mg BID), Part 2, Median): 2450 L
- AUC(0-t) [9]: 232 ng·h/mL
- AUC (plasma, 100 mg, Day 1, TAK-935 100 mg BID, plasma, mean, read-out: AUCτ (AUC during a dosing interval)): 232 ng·h/mL
- Cmax (plasma, 100 mg, Day 1, TAK-935 100 mg BID, plasma, mean, read-out: Cmax): 255 ng/mL
- Vd/F [9]: 4100 L
- half-life [9]: 359 min
- Tmax (plasma, 100 mg, Day 1, TAK-935 100 mg BID, plasma, median, read-out: tmax): 45 min
- AUC (plasma, 100 mg, Day 7 (100 mg BID), Part 2, Geo Mean, read-out: AUC1ast): 201 ng·h/mL
- AUC (plasma, 100 mg, Day 7 (100 mg BID), Part 2, Geo Mean, read-out: AUCtau): 202 ng·h/mL
- Cmax (plasma, 100 mg, Day 7 (100 mg BID), Part 2, Geo Mean, read-out: Cmax): 146 ng/mL
- Tmax (plasma, 100 mg, Day 7 (100 mg BID), Part 2, Mean, read-out: Tmax): 50 min
- AUC (plasma, 100 mg, Day 7 (100 mg BID), Part 2, Median, read-out: AUC1ast): 226 ng·h/mL
- AUC (plasma, 100 mg, Day 7 (100 mg BID), Part 2, Median, read-out: AUCtau): 226 ng·h/mL
- Cmax (plasma, 100 mg, Day 7 (100 mg BID), Part 2, Median, read-out: Cmax): 148 ng/mL
- Vd/F (plasma, 100 mg, Day 7 (100 mg BID), Part 2, Median): 2600 L
- AUC(0-t) [10]: 224 ng·h/mL
- AUC (plasma, 100 mg, Day 7, TAK-935 100 mg BID, plasma, mean, read-out: AUCτ (AUC during a dosing interval)): 224 ng·h/mL
- Cmax (plasma, 100 mg, Day 7, TAK-935 100 mg BID, plasma, mean, read-out: Cmax): 204 ng/mL
- Vd/F [10]: 2940 L
- half-life [10]: 218 min
- Tmax (plasma, 100 mg, Day 7, TAK-935 100 mg BID, plasma, median, read-out: tmax): 30 min
- Tmax (plasma, 100 mg, TAK-935, Day 1, 100 mg BID, read-out: Median Tmax): 45 min
- AUC (plasma, 100 mg, TAK-935, Day 1, first dose 100 mg BID, read-out: Mean AUCτ): 232 ng·h/mL
- Cmax (plasma, 100 mg, TAK-935, Day 1, first dose 100 mg BID, read-out: mean Cmax): 255 ng/mL
- AUC (plasma, 100 mg, TAK-935, Day 7, 100 mg BID, read-out: Mean AUCτ): 224 ng·h/mL
- Cmax (plasma, 100 mg, TAK-935, Day 7, 100 mg BID, read-out: mean Cmax): 204 ng/mL
- AUC (plasma, 200 mg, Day 14 (200 mg BID), Part 2, Geo Mean, read-out: AUC1ast): 788 ng·h/mL
- AUC (plasma, 200 mg, Day 14 (200 mg BID), Part 2, Geo Mean, read-out: AUCtau): 789 ng·h/mL
- Cmax (plasma, 200 mg, Day 14 (200 mg BID), Part 2, Geo Mean, read-out: Cmax): 836 ng/mL
- Tmax (plasma, 200 mg, Day 14 (200 mg BID), Part 2, Mean, read-out: Tmax): 40 min
- AUC (plasma, 200 mg, Day 14 (200 mg BID), Part 2, Median, read-out: AUC1ast): 794 ng·h/mL
- AUC (plasma, 200 mg, Day 14 (200 mg BID), Part 2, Median, read-out: AUCtau): 794 ng·h/mL
- Cmax (plasma, 200 mg, Day 14 (200 mg BID), Part 2, Median, read-out: Cmax): 1030 ng/mL
- Vd/F (plasma, 200 mg, Day 14 (200 mg BID), Part 2, Median): 1030 L
- AUC(0-t) [11]: 860 ng·h/mL
- AUC (plasma, 200 mg, Day 14, TAK-935 200 mg BID, plasma, mean, read-out: AUCτ (AUC during a dosing interval)): 861 ng·h/mL
- Cmax (plasma, 200 mg, Day 14, TAK-935 200 mg BID, plasma, mean, read-out: Cmax): 980 ng/mL
- Vd/F [11]: 1090 L
- half-life [11]: 157 min
- Tmax (plasma, 200 mg, Day 14, TAK-935 200 mg BID, plasma, median, read-out: tmax): 30 min
- AUC (plasma, 200 mg, TAK-935, Day 14, 200 mg BID, read-out: Mean AUCτ): 861 ng·h/mL
- Cmax (plasma, 200 mg, TAK-935, Day 14, 200 mg BID, read-out: mean Cmax): 980 ng/mL
- AUC (plasma, 300 mg, Day 21 (300 mg BID), Part 2, Geo Mean, read-out: AUC1ast): 1960 ng·h/mL
- AUC (plasma, 300 mg, Day 21 (300 mg BID), Part 2, Geo Mean, read-out: AUCtau): 1960 ng·h/mL
- Cmax (plasma, 300 mg, Day 21 (300 mg BID), Part 2, Geo Mean, read-out: Cmax): 1940 ng/mL
- Tmax (plasma, 300 mg, Day 21 (300 mg BID), Part 2, Mean, read-out: Tmax): 32.5 min
- AUC (plasma, 300 mg, Day 21 (300 mg BID), Part 2, Median, read-out: AUC1ast): 2040 ng·h/mL
- AUC (plasma, 300 mg, Day 21 (300 mg BID), Part 2, Median, read-out: AUCtau): 2040 ng·h/mL
- Cmax (plasma, 300 mg, Day 21 (300 mg BID), Part 2, Median, read-out: Cmax): 1600 ng/mL
- Vd/F (plasma, 300 mg, Day 21 (300 mg BID), Part 2, Median): 620 L
- AUC(0-t) [12]: 2020 ng·h/mL
- AUC (plasma, 300 mg, Day 21, TAK-935 300 mg BID, plasma, mean, read-out: AUCτ (AUC during a dosing interval)): 2020 ng·h/mL
- Cmax (plasma, 300 mg, Day 21, TAK-935 300 mg BID, plasma, mean, read-out: Cmax): 2060 ng/mL
- Vd/F [12]: 640 L
- half-life [12]: 176 min
- Tmax (plasma, 300 mg, Day 21, TAK-935 300 mg BID, plasma, median, read-out: tmax): 30 min
- AUC (plasma, 300 mg, TAK-935, Day 21, 300 mg BID, read-out: Mean AUCτ): 2020 ng·h/mL
- Cmax (plasma, 300 mg, TAK-935, Day 21, 300 mg BID, read-out: mean Cmax): 2060 ng/mL
- Tmax (plasma, TAK-935, Day 7, Day 14 and Day 21, read-out: Median Tmax): 30 min
